Assay results: ChEMBL document CHEMBL1149956, “Synthesis and biological evaluation of new 5-HPETE analogs” (Bioorg Med Chem Lett, 1994)
Active and inactive are the calls of the source. No cut-off for these calls is given here.

How the values were obtained:
[1] = biological target: T1, Polyunsaturated fatty acid 5-lipoxygenase (Homo sapiens) (UniProt P09917); assay: Tested for the inhibition of 5-lipoxygenase from human polymorphonuclear leukocytes(PMN) at 10 uM concentration of the compound; IA= Inactive
T1 sequence (whole entry): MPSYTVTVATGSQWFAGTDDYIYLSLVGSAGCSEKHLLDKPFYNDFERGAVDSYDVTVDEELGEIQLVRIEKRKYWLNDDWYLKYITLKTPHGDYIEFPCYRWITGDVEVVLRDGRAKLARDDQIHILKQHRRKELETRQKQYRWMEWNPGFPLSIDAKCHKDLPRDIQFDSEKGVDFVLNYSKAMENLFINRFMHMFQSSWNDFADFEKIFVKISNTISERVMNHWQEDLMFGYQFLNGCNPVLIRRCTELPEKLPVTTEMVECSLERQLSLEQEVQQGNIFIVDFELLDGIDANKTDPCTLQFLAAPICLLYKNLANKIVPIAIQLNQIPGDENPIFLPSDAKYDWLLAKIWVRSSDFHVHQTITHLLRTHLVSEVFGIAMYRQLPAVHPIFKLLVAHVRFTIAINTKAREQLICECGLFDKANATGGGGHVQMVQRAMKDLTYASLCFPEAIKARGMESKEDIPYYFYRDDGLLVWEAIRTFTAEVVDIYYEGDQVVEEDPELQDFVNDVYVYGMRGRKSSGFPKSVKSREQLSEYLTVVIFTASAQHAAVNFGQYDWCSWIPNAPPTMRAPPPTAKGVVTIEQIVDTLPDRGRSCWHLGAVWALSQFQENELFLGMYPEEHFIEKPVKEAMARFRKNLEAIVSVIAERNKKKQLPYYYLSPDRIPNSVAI

[2] = biological target: T1, Polyunsaturated fatty acid 5-lipoxygenase (Homo sapiens); assay: Tested for the inhibition of 5-lipoxygenase from human polymorphonuclear leukocytes(PMN) at 10 uM concentration of the compound; value ranges from 70-90

Row | SMILES | inhibition [1] | inhibition [2]
1 | CCCCC/C=C\C/C=C\C/C=C\C=C\C1CC(CC(=O)OC)=NO1 (stereo not given) | inactive | 
2 | CCCCC/C=C\C/C=C\C/C=C\C=C\c1cc(CC(=O)OC)no1 |  | 70%

The remaining lines, values ahead:

Row | inhibition [1] | inhibition [2] | SMILES
3 | inactive |  | CCCCCCCCCCC/C=C\C=C\c1cc(C/C=N/O)no1
4 |  | 70% | CCCCCCCCCCC/C=C\C=C\C1CC(CC(=O)OC)=NO1 (stereo not given)
5 |  | 70% | CCCCCCCCCCC/C=C\C=C\c1cc(CC(=O)OC)no1
